In patent publication US20260297031A1, “HYDROXYLAMINE-BASED BCR-ABL1 INHIBITORS FOR TREATMENT OF CANCER” (University of Georgia Research Foundation, Inc., priority 2023, published 2026):

Tests used:
[1] = Metabolic stability in human hepatocytes
[2] = target: T1, BCR-ABL1 Q252H (Homo sapiens, UniProt P00519, Q252H); test: KinaseProfiler radiometric kinase assay, BCR-ABL1 Q252H; type: biochemical; conditions: [ATP] = 10 μM; mean of n = 2
T1 construct: BCR (fusion partner, as the printed name BCR-ABL1 says)

[3] = target: cSRC (Homo sapiens, UniProt P12931); test: KinaseProfiler radiometric kinase assay, cSRC wt; type: biochemical; conditions: [ATP] = 10 μM; mean of n = 2
[4] = target: T2, BCR-ABL1 M351T (Homo sapiens, UniProt P00519, M351T); test: KinaseProfiler radiometric kinase assay, BCR-ABL1 M351T; type: biochemical; conditions: [ATP] = 10 μM; mean of n = 2
T2 construct: BCR (fusion partner, as the printed name BCR-ABL1 says)

[5] = Plasma protein binding by equilibrium dialysis, human plasma; type: in vitro ADME; conditions: for % Unbound: human plasma, 360 min, 5 µM
[6] = test system: Caco-2 cells; test: Caco-2 permeability; conditions: Papp (b − a/a − b)
Protocol: Caco-2 Permeability (Independently Performed by Pharmaron Inc., Ningbo, CN)
To each well of the Transwell insert and reservoir were added 50 μL and 25 mL of cell culture medium, respectively. […] Following this, the Caco-2 plate was removed from the incubator and the monolayer washed twice with pre-warmed HBSS (10 mM HEPES, pH 7.4).
To determine the rate of drug transport in the apical to basolateral direction, 125 μL of the working solution of either test compounds or control compounds was added to the Transwell insert (apical compartment) and a 50 μL sample was immediately transported from the apical compartment to 200 μL of acetonitrile containing internal standard (100 nM alprazolam, 200 nM Caffeine and 100 nM tolbutamide) in a new 96-well plate as the initial donor sample (A-B). The sample was then vortexed at 1,000 rpm for 10 min. The receiver plate (basolateral compartment) wells were then filled with 235 μL of transport buffer. To determine the rate of drug transport in the basolateral to apical direction, 285 μL of the working solution of either test compounds or control compounds was added to the receiver plate wells (basolateral compartment) and a 50 μL sample was immediately transferred from the basolateral compartment to 200 μL of acetonitrile containing internal standard in a new 96-well plate as the initial donor sample (B-A). The sample was vortexed at 1,000 rpm for 10 min. The Transwell insert (apical compartment) was then filled with 75 μL of transport buffer and the apical to basolateral direction and the basolateral to apical direction were done at the same time. […] After incubation, 50 μL samples from donor sides (apical compartment for Ap→BI flux, and basolateral compartment for BI→Ap) and receiver sides (basolateral compartment for Ap→BI flux, and apical compartment for BI→Ap) were transferred to wells of a new 96-well plate, followed by the addition of 200 μL acetonitrile containing internal standard. All samples were vortexed for 10 min and then centrifuged at 3,220 g for 40 min. A 150 μL aliquot of the supernatant was then mixed with an appropriate volume of ultra-pure water prior to LC-MS/MS analysis.
To monitor for monolayer integrity, Lucifer yellow leakage was determined after the 2 h transport period. This began by preparing a stock solution of Lucifer yellow in DMSO which was diluted with HBSS (10 mM HEPES, pH 7.4.) to reach a final concentration of 100 μM. To each Transwell insert (apical compartment) was then added 100 μL of the Lucifer yellow solution, followed by filling the wells in the receiver plate (basolateral compartment) with 300 μL of HBSS (10 mM HEPES, pH 7.4).
The efflux ratio was determined using the following equation: […]

Chain of cSRC (P12931 whole entry): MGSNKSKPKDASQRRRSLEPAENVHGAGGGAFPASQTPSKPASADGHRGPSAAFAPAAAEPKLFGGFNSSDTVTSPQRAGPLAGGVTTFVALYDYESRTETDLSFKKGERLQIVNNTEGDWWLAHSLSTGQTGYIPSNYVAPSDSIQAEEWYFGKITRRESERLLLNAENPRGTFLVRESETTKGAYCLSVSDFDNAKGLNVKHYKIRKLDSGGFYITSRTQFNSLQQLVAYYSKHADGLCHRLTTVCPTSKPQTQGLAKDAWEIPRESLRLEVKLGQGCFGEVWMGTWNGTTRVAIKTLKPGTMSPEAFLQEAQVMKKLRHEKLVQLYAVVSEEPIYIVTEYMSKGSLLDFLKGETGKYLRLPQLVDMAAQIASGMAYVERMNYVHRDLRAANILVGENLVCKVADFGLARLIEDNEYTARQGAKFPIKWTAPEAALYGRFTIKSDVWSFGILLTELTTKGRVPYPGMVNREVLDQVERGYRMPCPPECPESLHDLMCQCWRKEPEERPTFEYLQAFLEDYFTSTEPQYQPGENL

COc1cc(Nc2c(C#N)cnc3cc(OCCON4CCN(C)CC4)c(OC)cc23)c(F)cc1Cl [Compound 15, 4-((4-chloro-2-fluoro-5-methoxyphenyl)amino)-6-methoxy-7-(2-((4-methylpiperazin-1-yl)oxy)ethoxy)quinoline-3-carbonitrile]
remaining at 0.5 min ([1]; hepatocytes): 100% | remaining at 0.5 h ([1]; hepatocytes): 52.5% | remaining at 1 h ([1]; hepatocytes): 29.4% | remaining at 2 h ([1]; hepatocytes): 9.48% | t1/2 ([1]; hepatocytes): 34.2 min | IC50 [2]: 2 nM | IC50 [3]: 2 nM | IC50 [4]: 2 nM | % Unbound [5]: 5.58% | fraction unbound at 6 h, 5 µM ([5]; plasma, human, 5 μM, read-out: fu, plasma %): 0.056 | Efflux Ratio [6]: 6.4

COc1cc2c(Nc3cccc(OC)c3Cl)c(C#N)cnc2cc1OCCON1CCN(C)CC1 [Compound 17, 4-((2-Chloro-3-methoxyphenyl)amino)-6-methoxy-7-(2-((4-methylpiperazin-1-yl)oxy)ethoxy)quinoline-3-carbonitrile]
stability in hepatocytes, in words [1]: good stability in human hepatocytes | remaining at 0.5 min ([1]; hepatocytes): 100% | remaining at 0.5 h ([1]; hepatocytes): 80.6% | remaining at 1 h ([1]; hepatocytes): 60.5% | remaining at 2 h ([1]; hepatocytes): 35.8% | IC50 [2]: 37 nM | IC50 [3]: 14 nM | IC50 [4]: 31 nM | % Unbound [5]: 7.37% | Efflux Ratio [6]: 3.58

COc1cc(Cl)ccc1Nc1c(C#N)cnc2cc(OCCON3CCN(C)CC3)c(OC)cc12 [Compound 20, 4-((4-Chloro-2-methoxyphenyl)amino)-6-methoxy-7-(2-((4-methylpiperazin-1-yl)oxy)ethoxy)quinoline-3-carbonitrile]
stability in hepatocytes, in words [1]: good stability in human hepatocytes | remaining at 0.5 min ([1]; hepatocytes): 100% | remaining at 0.5 h ([1]; hepatocytes): 63.5% | remaining at 1 h ([1]; hepatocytes): 43.3% | remaining at 2 h ([1]; hepatocytes): 20.1% | IC50 [2]: 10 nM | IC50 [3]: 11 nM | IC50 [4]: 13 nM | % Unbound [5]: 7.73% | Efflux Ratio [6]: 6.24
